How the values were obtained:
hα7-wt nAChR = hα7-wt nAChR (Homo sapiens, UniProt P36544); experiment: Ca2+ flux imaging (FDSS): potentiation of the choline response; type: cell-based; conditions: Ca2+ assay as described in D.1, potentiation of choline response, hα7-wt nAChR; for EC50: read-out: Potency (pEC50) (converted); for Emax: read-out: % Efficacy
Procedure: • a) Assay Buffer • Hanks buffered saline solution (HBSS, Invitrogen, Belgium), supplemented with 10 mM HEPES (Invitrogen, Belgium), CaCl2 to a final concentration of 5 mM, 0.1% Bovine serum albumin (Sigma-Aldrich NV, Belgium). • b) Calcium-Sensitive Dye—Fluo-4AM • Fluo-4AM (Molecular Probes, USA) was dissolved in DMSO containing 10% Pluronic acid (Molecular Probes, USA) to give a stock solution which was diluted in assay buffer supplemented with 5 mM probenicid (Sigma, Aldrich NV, Belgium) to give a final concentration of 2 μM. • c) 384-Well Plates • Black 384 well plate black/clear plates, PDL pre-coated (Corning, Incorporated, USA) • d) Calcium Flux Measurement • A Functional drug screening system (FDSS, Hamamatsu) was used to measure intracellular free-calcium flux signals. Method
Monolayers of hα7-wt nAChR-expressing cells were grown in multi-well plates, in particular black-sided, transparent bottomed 384 well plates coated with poly-D-lysine for 24 hours prior to loading with a fluorescent calcium indicator, in a particular embodiment loading with fluo-4AM for up to 120 minutes.
PAM activity was detected in real time by applying the compounds to be tested to the loaded cells along with a α7 nicotinic receptor agonist during constant monitoring of cellular fluorescence in a FDSS. Compounds giving peak fluorescent responses greater than the response due to agonist alone, were considered to be α7 nAChR PAM's. In a particular embodiment, the α7 nicotinic receptor agonist was choline, a more particular embodiment choline applied at a sub-maximal concentration of 100 μM. In a further setting of the present invention the compounds to be tested were applied prior to the α7 nicotinic receptor agonist, in a particular embodiment up to 10 minutes prior to the agonist.
A control response to choline was calculated on each plate from the difference in peak in fluorescence in wells receiving either choline or assay buffer alone. Compounds of the present invention were tested at a concentration range from 0.01 μM to 30 μM. Compounds were considered to have an interesting activity when they potentiated the choline signal at least with 200% when tested at a concentration of 30 μM (the efficacy of 100 μM choline was defined as 100% in the absence of a PAM). An EC50 (or pEC50) was determined as a concentration relating to half the maximal effect, when a clear sigmoidal curve with top plateau was obtained.

Sequence of hα7-wt nAChR (P36544 23-502): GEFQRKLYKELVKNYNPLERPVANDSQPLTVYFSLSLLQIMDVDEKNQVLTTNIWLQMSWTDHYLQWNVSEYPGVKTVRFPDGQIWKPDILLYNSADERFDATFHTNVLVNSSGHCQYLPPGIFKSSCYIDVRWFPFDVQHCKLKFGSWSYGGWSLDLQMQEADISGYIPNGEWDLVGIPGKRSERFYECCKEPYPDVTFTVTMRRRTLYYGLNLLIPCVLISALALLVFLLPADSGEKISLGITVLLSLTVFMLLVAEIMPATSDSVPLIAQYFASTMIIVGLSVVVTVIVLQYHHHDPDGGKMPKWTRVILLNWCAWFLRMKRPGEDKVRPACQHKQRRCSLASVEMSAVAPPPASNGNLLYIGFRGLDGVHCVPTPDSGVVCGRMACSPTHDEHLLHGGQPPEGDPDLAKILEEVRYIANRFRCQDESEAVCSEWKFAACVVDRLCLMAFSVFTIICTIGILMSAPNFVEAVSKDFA

SMILES | melting point [°C] | EC50 (hα7-wt nAChR) [nM] | Emax (hα7-wt nAChR) [%]
COc1cc(Nc2cc(COCc3ccccc3)n(-c3ccnc(C)c3)n2)cc(C(F)(F)F)c1 [Compound 1, N-[3-methoxy-5-(trifluoromethyl)phenyl]-1-(2-methyl-4-pyridinyl)-5-[(phenylmethoxy)methyl]-1H-pyrazol-3-amine] | 148.1 | 1450 | 
COc1cc(Nc2cc(CC#N)n(-c3ccnc(C)c3)n2)cc(C(F)(F)F)c1 [Compound 3, 3-[[3-methoxy-5-(trifluoromethyl)phenyl]amino]-1-(2-methyl-4-pyridinyl)-1H-pyrazole-5-acetonitrile] | 183.8 | 1950 | 930
COc1cc(Nc2cc(CCCO)n(-c3ccnc(C)c3)n2)cc(C(F)(F)F)c1 [Compound 7, 3-[[3-methoxy-5-(trifluoromethyl)phenyl]amino]-1-(2-methyl-4-pyridinyl)-1H-pyrazole-5-propanol] |  | 2880 | 
CC[C@@H](O)Cc1cc(Nc2ccc(F)c(F)c2F)nn1-c1ccnc(C)c1 [Compound 13, (alphaR)-alpha-ethyl-1-(2-methyl-4-pyridinyl)-3-[(2,3,4-trifluorophenyl)amino]-1H-pyrazole-5-ethanol] | 144.4 | 316 | 
Cc1cc(-n2nc(Nc3ccc(F)c(F)c3)cc2C)ccn1 [Compound 14, N-(3,4-difluorophenyl)-5-methyl-1-(2-methyl-4-pyridinyl)-1H-pyrazol-3-amine] | 169.2 | 3390 | 
Cc1cc(-n2nc(Nc3ccc(F)c(F)c3)cc2CO)ccn1 [Compound 15, 3-[(3,4-difluorophenyl)amino]-1-(2-methyl-4-pyridinyl)-1H-pyrazole-5-methanol] | 155.3 | 2820 | 
CC[C@@H](O)Cc1cc(Nc2cc(F)c(F)c(F)c2)nn1-c1ccnc(C)c1 [Compound 19, (alphaR)-alpha-ethyl-1-(2-methyl-4-pyridinyl)-3-[(3,4,5-trifluorophenyl)amino]-1H-pyrazole-5-ethanol] | 170.4 | 309 | 705
CNC(=O)Cc1cc(Nc2ccc(F)c(F)c2)nn1-c1ccnc(C)c1 [Compound 27, 3-[(3,4-difluorophenyl)amino]-N-methyl-1-(2-methyl-4-pyridinyl)-1H-pyrazole-5-acetamide] | 252.9 |  | 
Cc1cc(-n2nc(Nc3ccc(F)c(F)c3)cc2CCCOCc2ccccc2)ccn1 [Compound 32, N-(3,4-difluorophenyl)-1-(2-methyl-4-pyridinyl)-5-[3-(phenylmethoxy)propyl]-1H-pyrazol-3-amine] | 108.2 | 1020 | 

More lines, now with the values ahead:

melting point [°C] | EC50 (hα7-wt nAChR) [nM] | Emax (hα7-wt nAChR) [%] | SMILES
 | 4370 |  | Cc1cc(-n2nc(Nc3cccc(C(F)(F)F)c3)cc2CC#N)ccn1 [Compound 40, 1-(2-methyl-4-pyridinyl)-3-[[3-(trifluoromethyl)phenyl]amino]-1H-pyrazole-5-acetonitrile]
168.1 | 692 |  | CC[C@@H](O)Cc1cc(Nc2cccc(Cl)c2F)nn1-c1ccnc(C)c1 [Compound 59, (alphaR)-3-[(3-chloro-2-fluorophenyl)amino]-alpha-ethyl-1-(2-methyl-4-pyridinyl)-1H-pyrazole-5-ethanol]
182.4 | 240 |  | CC[C@@H](O)Cc1cc(Nc2cc(F)cc(Cl)c2)nn1-c1ccnc(C)c1 [Compound 60, (alphaR)-3-[(3-chloro-5-fluorophenyl)amino]-alpha-ethyl-1-(2-methyl-4-pyridinyl)-1H-pyrazole-5-ethanol]
121.9 | 427 |  | CC[C@@H](O)Cc1cc(Nc2cc(Cl)cc(OC)c2)nn1-c1ccnc(C)c1 [Compound 62, (alphaR)-3-[(3-chloro-5-methoxyphenyl)amino]-alpha-ethyl-1-(2-methyl-4-pyridinyl)-1H-pyrazole-5-ethanol]
 | 3890 | 434 | Cc1cc(-n2nc(Nc3cccc(Cl)c3F)cc2CC#N)ccn1 [Compound 63, 3-[(3-chloro-2-fluorophenyl)amino]-1-(2-methyl-4-pyridinyl)-1H-pyrazole-5-acetonitrile]
271.2 | 2510 |  | CNC(=O)Cc1cc(Nc2ccc3c(c2)OC(F)(F)O3)nn1-c1ccnc(C)c1 [Compound 97, 3-[(2,2-difluoro-1,3-benzodioxol-5-yl)amino]-N-methyl-1-(2-methyl-4-pyridinyl)-1H-pyrazole-5-acetamide]
124.4 | 562 |  | Cc1cc(-n2nc(Nc3ccc4c(c3)OC(F)(F)O4)cc2CCCOCc2ccccc2)ccn1 [Compound 104, N-(2,2-difluoro-1,3-benzodioxol-5-yl)-1-(2-methyl-4-pyridinyl)-5-[3-(phenylmethoxy)propyl]-1H-pyrazol-3-amine]
180.2 | 2820 |  | Cc1cc(-n2nc(Nc3cccc(OC(F)(F)F)c3)cc2CC#N)ccn1 [Compound 107, 1-(2-methyl-4-pyridinyl)-3-[[3-(trifluoromethoxy)phenyl]amino]-1H-pyrazole-5-acetonitrile]
115.8 | 2000 |  | COC(=O)Cc1cc(Nc2cccc(OC(F)(F)F)c2)nn1-c1ccnc(C)c1 [Compound 109, 1-(2-methyl-4-pyridinyl)-3-[[3-(trifluoromethoxy)phenyl]amino]-1H-pyrazole-5-acetic acid methyl ester]
139.8 | 372 |  | Cc1cc(-n2nc(Nc3cccc(OC(F)(F)F)c3)cc2COCc2ccccc2)ccn1 [Compound 122, 1-(2-methyl-4-pyridinyl)-5-[(phenylmethoxy)methyl]-N-[3-(trifluoromethoxy)phenyl]-1H-pyrazol-3-amine]
